According to patent US4725578A, “Compounds having therapeutic effect and the preparation thereof” (Tobishi Pharmaceutical Co., Ltd., priority 1986, dated 1988):

Test system: P-388 cells
Test: Antineoplastic action against implanted P-388 cells (ip-ip), survival T/C
Type: in vivo, CDFl mice
Details: for T/C % (Treatment/Control %): Table 6, P388, intraperitoneal
Description: To the peritoneal cavity of each group of mice consisting of six CDFl mice per group, 10^6 /0.1 ml of P-388 cells or 10^5 /0.1 ml of L-1210 cells were implanted. […]
In the Table, the symbol T/C % means Treatment/Control %, that is the increase in life when the control is 100. […] This method is used in the screening of U.S. National Cancer Institute.
In Table 7, the symbol "i.P.-i.P." means that the tumor cells are implanted intraperitoneally and the compounds being tested are also administered intraperitoneally. The symbol "TR" is the therapeutic ratio obtained by dividing the dose which provides a maximum T/C value, by the dose which provides a minimum T/C value.

| SMILES | T/C % (Treatment/Control %) (dose 0.05 mg/kg) [%] | T/C % (Treatment/Control %) (dose 0.5 mg/kg) [%] | T/C % (Treatment/Control %) (dose 2 mg/kg) [%] | T/C % (Treatment/Control %) (dose 10 mg/kg) [%] | T/C (additional tests, P 388 (ip-ip), 0.5 mg/kg × 5, single agent) [%] |
| --- | --- | --- | --- | --- | --- |
| CCCC(=O)Oc1ccc2cc1Oc1ccc(cc1)CC1C(=O)N(C)C(C2)C(=O)NC(C)C(=O)NC(C)C(=O)N(C)C(Cc2ccc(OC)cc2)C(=O)NC(C)C(=O)N1C (centres unmarked) [Ex. 24] | 125.1 | 144.2 | 155.9 | 170.0 |  |
| COc1ccc(CC2C(=O)NC(C)C(=O)N(C)C3Cc4ccc(cc4)Oc4cc(ccc4OC(=O)C(C)C)CC(C(=O)NC(C)C(=O)NC(C)C(=O)N2C)N(C)C3=O)cc1 (centres unmarked) [Ex. 25] | 124.1 | 150.7 | 155.9 | 183.5 |  |
| CC=CC(=O)Oc1ccc2cc1Oc1ccc(cc1)CC1C(=O)N(C)C(C2)C(=O)NC(C)C(=O)NC(C)C(=O)N(C)C(Cc2ccc(OC)cc2)C(=O)NC(C)C(=O)N1C (centres unmarked) [Ex. 26] | 124.1 | 148.5 | 162.3 | 186.6 |  |
| CCCCC(=O)Oc1ccc2cc1Oc1ccc(cc1)CC1C(=O)N(C)C(C2)C(=O)NC(C)C(=O)NC(C)C(=O)N(C)C(Cc2ccc(OC)cc2)C(=O)NC(C)C(=O)N1C (centres unmarked) [Ex. 27] | 117.9 | 149.5 | 157.9 | 171.6 |  |
| COc1ccc(CC2C(=O)NC(C)C(=O)N(C)C3Cc4ccc(cc4)Oc4cc(ccc4OC(=O)CCC(C)C)CC(C(=O)NC(C)C(=O)NC(C)C(=O)N2C)N(C)C3=O)cc1 (centres unmarked) [Ex. 40, 4-methyl valerate] | 111.6 | 133.9 | 152.1 |  |  |
| CCC(C)CC(=O)Oc1ccc2cc1Oc1ccc(cc1)CC1C(=O)N(C)C(C2)C(=O)NC(C)C(=O)NC(C)C(=O)N(C)C(Cc2ccc(OC)cc2)C(=O)NC(C)C(=O)N1C (centres unmarked) [Ex. 42] | 114.6 | 140.0 | 159.2 |  |  |
| CCCC(C)C(=O)Oc1ccc2cc1Oc1ccc(cc1)CC1C(=O)N(C)C(C2)C(=O)NC(C)C(=O)NC(C)C(=O)N(C)C(Cc2ccc(OC)cc2)C(=O)NC(C)C(=O)N1C (centres unmarked) [Ex. 43] | 116.6 | 142.0 | 154.2 |  |  |
| CCCC=CC(=O)Oc1ccc2cc1Oc1ccc(cc1)CC1C(=O)N(C)C(C2)C(=O)NC(C)C(=O)NC(C)C(=O)N(C)C(Cc2ccc(OC)cc2)C(=O)NC(C)C(=O)N1C (centres unmarked) [Ex. 44] | 116.6 | 150.1 | 165.3 |  |  |
| CCC=CCC(=O)Oc1ccc2cc1Oc1ccc(cc1)CC1C(=O)N(C)C(C2)C(=O)NC(C)C(=O)NC(C)C(=O)N(C)C(Cc2ccc(OC)cc2)C(=O)NC(C)C(=O)N1C (centres unmarked) [Ex. 45] | 121.7 | 145.0 | 162.3 |  |  |
| CO[C@@]12[C@H](COC(N)=O)C3=C(C(=O)C(C)=C(N)C3=O)N1C[C@@H]1N[C@@H]12 [Mitomycin, reference compound] |  |  |  |  | 198.2 |
